Results reported in PubChem BioAssay (NCI).
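A five-concentration, 48-hour dose response in 96-well plates underlies each endpoint, interpolated linearly between surrounding concentrations. Abbreviation: GI50, concentration required for 50% inhibition of growth. TGI marks complete inhibition of growth.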

What was measured:
Test in all cases: growth of human tumour cells (NCI), 48 h
A549 NSCLC = system: A549 NSCLC
CAKI-1 renal = system: CAKI-1 renal
HCC-2998 colon = system: HCC-2998 colon
RXF 393 renal = system: RXF 393 renal
SF-295 CNS = system: SF-295 CNS
SK-MEL-2 melanoma = system: SK-MEL-2 melanoma
SK-MEL-28 melanoma = system: SK-MEL-28 melanoma
SNB-75 CNS = system: SNB-75 CNS
UACC-62 melanoma = system: UACC-62 melanoma
NCI/ADR-RES ovarian = system: NCI/ADR-RES ovarian

Structure (SMILES)	TGI (A549 NSCLC) [µM]	TGI (CAKI-1 renal) [µM]	TGI (HCC-2998 colon) [µM]	TGI (RXF 393 renal) [µM]	TGI (SF-295 CNS) [µM]	TGI (SK-MEL-2 melanoma) [µM]	TGI (SK-MEL-28 melanoma) [µM]	TGI (SNB-75 CNS) [µM]	TGI (UACC-62 melanoma) [µM]	GI50 (A549 NSCLC) [µM]	GI50 (CAKI-1 renal) [µM]	GI50 (HCC-2998 colon) [µM]	GI50 (NCI/ADR-RES ovarian) [µM]	TGI (NCI/ADR-RES ovarian) [µM]	GI50 (SF-295 CNS) [µM]	GI50 (SK-MEL-2 melanoma) [µM]	GI50 (SK-MEL-28 melanoma) [µM]	GI50 (SNB-75 CNS) [µM]	GI50 (UACC-62 melanoma) [µM]	GI50 (RXF 393 renal) [µM]
Cc1c(Cl)cccc1NC(=O)/C(Cl)=C(\Cl)C(=O)O	38.9	33.9	35.5	36.9	37.9	49.2	35.4	46.7	26.6											
C[C@]12CC[C@@H](OC(=O)N(CCCl)N=O)C[C@@H]1CC[C@@H]1[C@@H]2CC[C@]2(C)C(=O)CC[C@@H]12	4.69	20.7	9.43		> 51.1	38	29.6	30.5	25.6	0.73	1.67	2.77	4.88	30.2	0.308	17.1	14.7	2.74	1.46	
S=P(N1CCCC1)(N1CC1)N1CC1	> 100	> 100	> 100	> 100	> 100	> 100	> 100	> 100	> 100											
NC(=O)c1csc(C2CCC(CO)O2)n1 (configuration not stated)	> 100	> 100	> 100		> 100	> 100	> 100		> 100											
Cc1ccc2sc3ccc(N)cc3c(=O)c2c1	> 100	> 100	> 100	> 100	> 100	> 100	> 100		> 100					> 100						
CS(=O)(=O)NNS(=O)(=O)c1ccc(Cl)cc1	> 100	> 100	> 100	> 100	> 100	> 100		> 100	> 100											
COC(=O)c1ccc(C(=O)OC)c2nc3cc(C)ccc3nc12	> 100	> 100	> 100		> 100	> 100	> 100	> 100	> 100											
CCN(CC)CCOc1c(OC)c(Br)cc2c(C)c(C(=O)OC)oc12	20.2	3.5	7.41	13	2.99	50			4.92	10	1.26	2.42	6.45	12.8	1.18	3.17			1.33	4.17
Cc1c(C(=O)CC(=O)C(=O)Nc2cc(Cl)ccc2Cl)[n+](=O)c2ccccc2n1[O-]	> 100	> 100	> 100	> 100	> 100	> 100	> 100	78.1	40.2											
Clc1ccc(-c2c(C3=NCCN3)nnn2-c2ccccc2)cc1	> 100	> 100	> 100	> 100	> 100	> 100	> 100	> 100	> 100											
O=C1CCN2CCC(=O)c3c2c(cc2ccccc32)N1	> 100	> 100	> 100	> 100	> 100	> 100		> 100	> 100											
COc1ccc2ccccc2c1CN1CCOCCOCCN(Cc2c(OC)ccc3ccccc23)CCOCCOCC1	> 100	> 100	35.3	> 100	> 100	97.4	> 65	> 100	> 100											
COc1nc(C)cc2c(=O)n(-c3ccccc3)n(CC(O)CN3CCN(c4ccc(Cl)cc4)CC3)c(=O)c12 (configuration not stated)	> 50	> 50	> 50		> 50	> 50	> 50	27.8	> 50	> 50	> 50	> 50	> 50	> 50	36.4	43.1	> 50	10.1	46.6	
CCCCCCCCCCCCCC(=O)NCC(OCC)OCC	> 100		> 100	> 100	> 100	> 100	> 100	> 100	> 100											
CCCCN(CC)c1ncnc2ccc(Br)cc12	45.6	29	44.2	24.7	38.3	> 100	46.5		34.7	13.9	8.7	20.5	15.6	39.8	17.8	29.5	18.1		15.7	8.45
CC(/C=C/NNC1=NC(c2ccccc2)C(c2ccccc2)=NN1)Sc1ccccc1N (configuration not stated)	28.7	28	29.9		22.4	21.2	21.3	14	10.8											
CN1c2ccccc2S(=O)(=O)n2c(CCc3ccccc3)nnc21	> 100	> 100	> 100	> 100	> 100	> 100	> 100		> 100					> 100						
Cc1cccc(N=C2NC(=O)C(CC(=O)Nc3ccc(C)cc3C)S2)c1 (configuration not stated)	> 100	> 100	> 100	> 100	> 100	> 100	> 100	> 100	> 100											
CCOC(=O)C1=C(Nc2ccc(Cl)c(Cl)c2)OC/C1=N\NC(=O)Cc1ccccc1	> 100	> 100	> 100	> 100	> 100	> 100	> 100	> 100	> 100											
CC1(O)CCC2(C)C(=O)C1(C)CCC21OCCO1 (configuration not stated)	> 100		> 100	> 100	> 100	> 100	> 100													
N#Cc1c(C[n+]2ccccc2)c2ccccc2oc1=O	> 100	> 100	> 100		> 100	> 100	> 100	> 100	> 100											
